Read-outs that look alike come from different tables or passages of the source.
Legend:
[1] = in vivo
Excerpt: Any of the embodiments of this disclosure can be practiced to prevent accumulation of SEP-103 in the body exceeding levels studied and deemed safe in preclinical toxicology studies. […].

clinical = conditions: both, human, plasma, oral, 25 mg
Method: (§1) Renal function was assessed according to estimated glomerular filtration rate (eGFR) calculated using the Modification of Diet in Renal Disease (MDRD) equation at Screening and Check-in.
(§2) Healthy controls with normal renal function were enrolled in an effort to approximately match demographics (age, sex, weight, race) across the 2 groups. Potential subjects were screened to assess their eligibility to enter the study within 28 days (Day −28 to Day −3) prior to dose administration (Day 1).
(§3) Nine healthy controls, 9 subjects with mild renal impairment, and 6 subjects with moderate renal impairment were enrolled.
(§4) Male and female subjects aged between 18 and 70 years (inclusive) with a body mass index (BMI) between 18.0 and 40.0 kg/m^2 (inclusive) were eligible for study inclusion. Subjects were in good health except for specific inclusion criteria related to the status of renal impairment.
(§5) Subjects fasted for a minimum of 8 hours before dosing, and an additional 4 hours post-dose; intake of water was restricted except for the period from 1-hour pre-dose through 1-hour post-dose.
(§6) Final Results: Results were obtained by fitting an ANOVA model to the natural log-transformed PK parameter, with renal function group as fixed effect and subject as random effect. Results were back transformed to obtain the geometric LS mean ratio and 90% CI.

[2] = Phase 1 pharmacokinetic study of SEP-363856 in subjects with severe renal impairment and ESRD compared to normal renal function (Example 1)
Method: Renal function was assessed according to estimated glomerular filtration rate (eGFR) calculated using the Modification of Diet in Renal Disease (MDRD) equation at Screening and Check-in. Estimates calculated using the Cockcroft-Gault equation were also reported. Subjects in Group 1 had severe renal impairment not requiring dialysis and subjects in Group 2 had ESRD requiring dialysis.
Healthy matched controls with normal renal function were enrolled to match (age, sex, weight, race) across the 2 groups. A healthy control could be matched to more than 1 renally impaired subject. Potential subjects were screened to assess their eligibility to enter the study within 28 days (Day −28 to Day −3) prior to dose administration (Day 1). Each subject completed 1 or 2 treatment periods (1 treatment period for Group 1 and normal healthy subjects with normal renal function and 2 treatment periods for Group 2).
Subjects in Group 1 and the normal healthy subjects were admitted into the Clinical Research Unit (CRU) on Day −2 and confined to the CRU until discharge on Day 5. […] No food was allowed for 4 hours post-dose. Subjects in Group 1 returned to the CRU for a Follow-up visit approximately 7 days after discharge (i.e., Day 12±2).
Subjects in Group 2 followed their established dialysis schedule. They were admitted into the CRU on Day −2 and confined to the CRU until discharge on Day 5. […]

hERG = hERG (Homo sapiens, UniProt Q12809); test: toxicological studies, hERG inhibition; type: biochemical; conditions: concentrations up to 30 μM
hERG, sequence (Q12809 whole entry): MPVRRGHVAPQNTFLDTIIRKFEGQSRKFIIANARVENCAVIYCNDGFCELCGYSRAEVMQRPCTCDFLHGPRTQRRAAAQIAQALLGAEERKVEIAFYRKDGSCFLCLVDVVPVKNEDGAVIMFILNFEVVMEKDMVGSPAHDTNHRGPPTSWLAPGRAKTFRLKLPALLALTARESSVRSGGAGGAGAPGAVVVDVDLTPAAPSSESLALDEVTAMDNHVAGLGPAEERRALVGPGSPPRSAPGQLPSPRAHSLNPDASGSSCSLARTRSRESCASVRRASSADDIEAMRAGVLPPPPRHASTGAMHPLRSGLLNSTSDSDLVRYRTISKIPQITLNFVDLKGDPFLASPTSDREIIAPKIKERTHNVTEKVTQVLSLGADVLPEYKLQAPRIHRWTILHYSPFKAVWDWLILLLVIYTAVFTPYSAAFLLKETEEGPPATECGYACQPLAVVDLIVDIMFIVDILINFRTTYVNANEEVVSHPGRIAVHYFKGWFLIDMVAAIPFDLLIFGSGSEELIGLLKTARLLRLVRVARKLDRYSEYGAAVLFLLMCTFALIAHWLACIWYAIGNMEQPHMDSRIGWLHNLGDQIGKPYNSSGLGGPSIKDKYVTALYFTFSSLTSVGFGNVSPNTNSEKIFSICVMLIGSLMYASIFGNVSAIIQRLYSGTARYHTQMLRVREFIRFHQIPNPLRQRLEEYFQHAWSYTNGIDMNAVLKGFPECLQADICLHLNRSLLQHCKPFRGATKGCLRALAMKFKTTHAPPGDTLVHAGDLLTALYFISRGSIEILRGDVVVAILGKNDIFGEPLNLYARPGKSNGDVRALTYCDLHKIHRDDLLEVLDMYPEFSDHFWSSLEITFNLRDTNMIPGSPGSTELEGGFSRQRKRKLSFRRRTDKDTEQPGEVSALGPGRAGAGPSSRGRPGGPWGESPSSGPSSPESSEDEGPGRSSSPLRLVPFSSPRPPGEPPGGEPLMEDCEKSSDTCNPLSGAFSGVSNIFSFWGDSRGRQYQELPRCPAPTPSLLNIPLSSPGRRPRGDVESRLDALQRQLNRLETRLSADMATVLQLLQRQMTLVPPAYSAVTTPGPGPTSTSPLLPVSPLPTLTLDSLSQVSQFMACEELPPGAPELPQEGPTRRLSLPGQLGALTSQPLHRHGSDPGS

[3] = Phase 1 pharmacokinetic study of SEP-856 in subjects with mild and moderate renal impairment compared to normal renal function (Example 3); conditions: for SEP-383103 AUC0-∞ Geo LS Mean / SEP-383103 Cmax Geo LS Mean: ANOVA; for SEP-383103 AUC0-∞ Geo LS Mean / SEP-383103 Cmax Geo LS Mean / MRAUC (metabolite-to-parent ratio based on AUC0-∞) / SEP-383103 plasma Cmax / SEP-383103 plasma Tmax: n=8; for MRAUC (metabolite-to-parent ratio based on AUC0-∞) / SEP-383103 plasma Cmax: GeoMean; for SEP-383103 plasma Cmax / SEP-383103 plasma Tmax: metabolite after single dose SEP-363856 25 mg; for SEP-383103 plasma Tmax: Median
Method: as §1, §2, §3, §4, §5, §6

[4] = final results, Moderate vs Healthy

Q: For `O=C(O)[C@@H]1OCCc2ccsc21` [SEP-383103], which “blood concentration studied and deemed to be safe” value ([1]; dog) is on record?
A: 1100 ng/mL

Q: What about the “exposure level studied and deemed to be safe” value ([1]; dog) of the same compound?
A: 12200 ng·h/mL

Q: And the “blood concentration studied and deemed to be safe” value ([1]; rat)?
A: 700 ng/mL

Q: And the “exposure level studied and deemed to be safe” value ([1]; rat)?
A: 11700 ng·h/mL

Q: And the AUC(0-inf) (clinical)?
A: 613 ng·h/mL

Q: And the “correlation between exposure (AUC0-∞ and AUC0-last) and renal function” value ([2]; human, in vivo)?
A: strong correlation

Q: What about the “metabolite median Tmax versus healthy subjects” value ([2]; severe renal impairment) of the same compound?
A: delayed substantially

Q: And the hERG inhibition (hERG)?
A: no hERG inhibition

Q: What about the “correlation between exposure (AUC0-∞ and Cmax) and degree of renal impairment” value ([3]; final results) of the same compound?
A: significant correlation

Q: And the “SEP-383103 AUC0-∞ Geo LS Mean” value ([3]; final results, Mild)?
A: 769.5 ng·h/mL

Q: And the “SEP-383103 Cmax Geo LS Mean” value ([3]; final results, Mild)?
A: 54.98 ng/mL

Q: What about the “SEP-383103 AUC0-∞ Geo LS Mean” value ([3]; final results, Moderate) of the same compound?
A: 1043 ng·h/mL

Q: And the “SEP-383103 Cmax Geo LS Mean” value ([3]; final results, Moderate)?
A: 56.30 ng/mL

Q: What about the “MRAUC (metabolite-to-parent ratio based on AUC0-∞)” value ([3]; final results, Healthy) of the same compound?
A: 0.7348

Q: What about the “SEP-383103 AUC0-∞ Geo LS Mean Ratio” value ([3]; final results, Mild vs Healthy) of the same compound?
A: 125.47%

Q: And the “SEP-383103 Cmax Geo LS Mean Ratio” value ([3]; final results, Mild vs Healthy)?
A: 128.43%

Q: What about the “MRAUC (metabolite-to-parent ratio based on AUC0-∞)” value ([3]; final results, Mild) of the same compound?
A: 0.9643

Q: And the “SEP-383103 AUC0-∞ Geo LS Mean Ratio” value [3, 4]?
A: 170.12%

Q: And the “SEP-383103 Cmax Geo LS Mean Ratio” value [3, 4]?
A: 131.50%

Q: What about the “MRAUC (metabolite-to-parent ratio based on AUC0-∞)” value ([3]; final results, Moderate) of the same compound?
A: 1.276

Q: And the “SEP-383103 plasma Cmax” value ([3]; final results, Mild)?
A: 54.98 ng/mL

Q: What about the “SEP-383103 plasma Tmax” value ([3]; final results, Mild) of the same compound?
A: 5.000 h

Q: And the “SEP-383103 plasma Cmax” value ([3]; final results, Moderate)?
A: 56.30 ng/mL

Q: And the “SEP-383103 plasma Tmax” value ([3]; final results, Moderate)?
A: 6.000 h

Q: And the “metabolite Tmax change” value ([3]; mild renal impairment vs healthy)?
A: no change

Reference: patent publication US20250262185A1, “METHODS OF ADMINISTERING NEUROPSYCHIATRIC MEDICATIONS BASED ON RENAL IMPAIRMENT” (Sumitomo Pharma America, Inc., priority 2024, published 2025)
